Literature values as cited in patent publication US20190275119A1, “PROOXIDANT CANCER CHEMO-SUPPRESSORS AND CHEMO-PROTECTORS AND METHODS OF USE RELATED THERETO” (priority 2016, published 2019).

Test system: tumor cells
Conditions: low concentrations (about 10 μM)

| Structure (SMILES) | growth inhibition and apoptosis of tumor cells |
| --- | --- |
| O=CC=Cc1ccccc1O [HCA, 2′-hydroxycinnamaldehyde] | inhibit growth and induce apoptosis of tumor cells |
| O=CC=Cc1ccccc1OC(=O)c1ccccc1 [BCA, 2′-benzoyl-oxycinnamaldehyde] | inhibit growth and induce apoptosis of tumor cells |
